Reference: patent US8962530B2, “Inflammatory bowel disease therapies” (Regents of the University of Colorado, priority 2007, dated 2015)

Columns and labels:
TNFα mRNA = test: TNFα expression in colonic mucosal scrapings by real-time PCR, TNBS-colitis model; type: in vivo; conditions: TNBS-colitis mice; 40 mg/kg i.p. on day minus 1, day 0, day 1; day three; compared to non-treated TNBS-colitis mice; p<0.01
Source text: The effectiveness of compounds and methods of the present invention on intestinal barrier protection and treatment of inflammatory bowel disease (IBD) in TNBS (2,4,6-trinitrobenzene sulfonic acid)-induced colitis, an established animal model of inflammatory bowel disease, was examined. TNBS-induced colitis was induced in mice using a modification of techniques previously described. (See Morris et al (1989) Gastroenterology 96:795-803; Boirivant et al (1998) J Exp Med 188:1929-1939; Karhausen et al (2004) J Clin Invest 114:1098-1106.)
Mice were shaved on the abdomen (causing total depletion of hair and microlesions) and were then sensitized to subsequent treatment by epicutaneous application of 1% TNBS (Sigma-Aldrich) in 100% ethanol on day minus 7. Seven days later, on day 0, animals were sedated with a 2.5% Tribromoethanol solution in phosphate-buffered saline (14 μl/g body weight), followed by intrarectal administration of a 2.5% TNBS solution in 50% ethanol (5 μl/g body weight). […]
Amplification cSycle parameters were as follows: 3 minutes at 95° C.; 40 cycles of 45 seconds at 95° C., 30 seconds at 58° C., 30 seconds at 72° C.; followed by repetitive melting cycles to establish amplification product specificity. Comparison of gene expression in a semi-quantitative manner was performed based on the mathematical model of Pfaffl. […]

TNBS-induced colitis = test: Histological analysis of colon sections in TNBS-colitis model; type: in vivo; conditions: TNBS-colitis mice; 40 mg/kg i.p. on day minus 1, day 0, day 1; day three; compared to vehicle-control treated TNBS-colitis animals
Source text: The effectiveness of compounds and methods of the present invention on intestinal barrier protection and treatment of inflammatory bowel disease (IBD) in TNBS (2,4,6-trinitrobenzene sulfonic acid)-induced colitis, an established animal model of inflammatory bowel disease, was examined. TNBS-induced colitis was induced in mice using a modification of techniques previously described. (See Morris et al (1989) Gastroenterology 96:795-803; Boirivant et al (1998) J Exp Med 188:1929-1939; Karhausen et al (2004) J Clin Invest 114:1098-1106.) Mice were shaved on the abdomen (causing total depletion of hair and microlesions) and were then sensitized to subsequent treatment by epicutaneous application of 1% TNBS (Sigma-Aldrich) in 100% ethanol on day minus 7. Seven days later, on day 0, animals were sedated with a 2.5% Tribromoethanol solution in phosphate-buffered saline (14 μl/g body weight), followed by intrarectal administration of a 2.5% TNBS solution in 50% ethanol (5 μl/g body weight). Administration of the 2.5% TNBS solution was carried out using an epidural catheter ([…] Plus Epidural Catheter, Arrow International), which was inserted approximately 6 cm ab ano followed by release of the TNBS solution. To ensure the continuance of the TNBS solution in the colon, mice were suspended in a vertical position for at least 5 minutes following administration. Vehicle control animals received a corresponding volume of 50% ethanol solution alone. Unless otherwise indicated, compounds of the invention were administered to animals intraperitoneally (i.p.) as a solution. Animals were dosed with compound (40 mg/kg/day or 20 mg/kg/day) on day minus 1, day 0, and day 1, or exclusively on day 0 and day 1, by i.p. injection. On day 0, TNBS treatment was performed on animals 4 hours after injection of compound. The effect of methods and compounds of the present invention on structural changes of the colon associated with inflammatory bowel disease was studied using an established animal model of inflammatory bowel disease (described above in Example 1). […]

O=C(O)CNC(=O)c1ncc2cc(Sc3ccccc3)ccc2c1O [Compound A, [(4-Hydroxy-7-phenylsulfanyl-isoquinoline-3-carbonyl)-amino]-acetic acid]
TNFα mRNA levels in colonic mucosal scrapings (TNFα mRNA): significant decrease | inflammatory infiltrate in colon sections (TNBS-induced colitis): reduction in inflammatory infiltrate | tissue architecture in colon sections (TNBS-induced colitis): overall general preservation of tissue architecture | villous blunting in colon sections (TNBS-induced colitis): reduction in villous blunting
